Like-named read-outs stand apart in the source and are kept apart here.
Tests used:
[1] = test system: ovarian cancer cells (OVCAR-3); experiment: Cancer cell line growth inhibition, Sulforhodamine B assay, OVCAR-3; type: cell-based; settings: read-out: Cancer Cell Line GI50 Range OVCAR-3
Experimental: (§1) Breast cancer cells (MDA-MB-231 and MDA-MB-468), colon cancer cells (HCT116) and ovarian cancer cells (PA-1 and OVCAR-3) were seeded (1000 to 4000 in 80 μl per well depending on the cell growth rate) into 96 well plates 24 hours before compound overlay. Compounds were prepared as 10 mM stock solutions in 100% DMSO which were diluted with DMEM (Dulbecco's Modified Eagle's Medium) cell growth Medium (Invitrogen, Burlington, ON, Canada) containing 10% FBS (Fetal Bovine Serum) to concentrations ranging from 50 nM to 250 μM. Aliquots (20 μl) from each concentration were overlaid to 80 μl of the pre-seeded cells in the 96 well plates to make final concentrations of 10 nM to 50 μM. The cells were cultured for 5 days before the Sulforhodamine B assay (SRB) was performed to determine the compound's cell growth inhibition activity.
(§2) Sulforhodamine B (purchased from Sigma, Oakville, ON, Canada) is a water-soluble dye that binds to the basic amino acids of the cellular proteins. Thus, colorimetric measurement of the bound dye provides an estimate of the total protein mass that is related to the cell number. the cells are fixed in situ by gently aspirating off the culture media and adding 50 μl ice cold 10% Trichloroacetic Acid (TCA) per well and incubate at 4° C. for 30-60 min, The plates are washed with H2O five times and allowed to air dry for 5 min. Addition of 50 μl 0.4% (w/v) SRB solution in 1% (v/v) acetic acid to each well and incubation for 30 min at RT completes the staining reaction. Following staining, plates are washed four times with 1% acetic acid to remove unbound dye and then allowed to air dry for 5 min. The stain is solubilized with 100 μl of 10 mM Tris pH 10.5 per well. Absorbance is read at 570 nm.
(§3) The percentage (%) of relative growth inhibition was calculated by comparing to DMSO treated only cells (100%). GI50's were determined for compounds with cytotoxic activity. The GI50 was calculated using GraphPad PRISM software (GraphPad Software, Inc., San Diego, Calif., USA).
(§4) In Table 3 below, GI50 value ranges for compound examples against breast cancer cell lines (MDA-MB-468), colon cancer cell lines (HCT116) and ovarian cancer cell lines (OVCAR-3) are given.

human TTK = molecular target: T1, human TTK (Homo sapiens, UniProt P33981); experiment: TTK inhibition assay (indirect ELISA); type: biochemical; settings: 100 μM ATP; read-out: TTK IC50 Range
T1 construct: Active TTK was purchased from Invitrogen as an amino terminal GST fusion of full length human TTK; purchased Invitrogen
T1 sequence (P33981 1-857): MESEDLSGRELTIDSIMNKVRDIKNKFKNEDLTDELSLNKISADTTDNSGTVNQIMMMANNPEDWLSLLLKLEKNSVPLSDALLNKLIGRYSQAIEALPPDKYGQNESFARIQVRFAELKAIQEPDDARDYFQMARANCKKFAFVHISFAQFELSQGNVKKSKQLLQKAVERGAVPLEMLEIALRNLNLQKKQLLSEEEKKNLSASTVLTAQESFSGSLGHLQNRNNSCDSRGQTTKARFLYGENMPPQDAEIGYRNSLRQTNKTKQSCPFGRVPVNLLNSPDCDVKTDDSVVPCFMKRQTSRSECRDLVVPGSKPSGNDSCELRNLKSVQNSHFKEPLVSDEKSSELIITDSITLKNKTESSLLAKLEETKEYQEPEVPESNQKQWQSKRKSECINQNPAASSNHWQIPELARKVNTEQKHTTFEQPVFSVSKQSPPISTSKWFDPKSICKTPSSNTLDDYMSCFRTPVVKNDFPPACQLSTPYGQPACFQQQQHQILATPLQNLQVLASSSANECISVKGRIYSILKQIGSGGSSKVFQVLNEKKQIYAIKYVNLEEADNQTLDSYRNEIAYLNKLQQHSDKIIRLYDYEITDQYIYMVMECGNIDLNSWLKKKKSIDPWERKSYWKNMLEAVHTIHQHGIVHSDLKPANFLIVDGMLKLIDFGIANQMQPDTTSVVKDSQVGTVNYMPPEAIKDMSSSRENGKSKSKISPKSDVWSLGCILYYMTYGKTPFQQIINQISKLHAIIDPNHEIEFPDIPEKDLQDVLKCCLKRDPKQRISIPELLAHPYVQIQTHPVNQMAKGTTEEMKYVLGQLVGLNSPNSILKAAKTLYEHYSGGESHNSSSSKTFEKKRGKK
In short: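 Activity detected by indirect ELISA after compounds sat with full-length GST-TTK for 5 min prior to starting the reaction with ATP. IC50 came from a four-parameter logistic curve of % inhibition, calculated against background and uninhibited control wells.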

[2] = test system: colon cancer cells (HCT116); experiment: Cancer cell line growth inhibition, Sulforhodamine B assay, HCT116; type: cell-based; settings: read-out: Cancer Cell Line GI50 Range HCT116
Experimental: as §1, §2, §3
(§5) In Table 1 below, GI50 value ranges for compound examples against breast cancer cell lines (MDA-MB-468), colon cancer cell lines (HCT116) and ovarian cancer cell lines (PA-1) are given.
In Table 2 below, GI50 value ranges for compound examples against breast cancer cell lines (MDA-MB-231), colon cancer cell lines (HCT116) and ovarian cancer cell lines (PA-1) are given.
as §4

[3] = test system: breast cancer cells (MDA-MB-468); experiment: Cancer cell line growth inhibition, Sulforhodamine B assay, MDA-MB-468; type: cell-based; settings: read-out: Cancer Cell Line GI50 Range MDA-MB-468
Experimental: as §1, §2, §3, §5, §4

[4] = Homo sapiens, OVCAR-3, OVCAR-3 ovarian cancer cell line
[5] = Homo sapiens, HCT-116, HCT116 colon cancer cell line
[6] = Homo sapiens, MDA-MB-468, MDA-MB-468 breast cancer cell line

Row | Compound | GI50 [1, 4] [µM] | IC50 (human TTK) [µM] | GI50 [2, 5] [µM] | GI50 [3, 6] [µM] | GI50 ([1]; OVCAR-3 ovarian cancer cell line) [µM] | GI50 ([2]; HCT116 colon cancer cell line) [µM] | GI50 ([3]; MDA-MB-468 breast cancer cell line) [µM]
1 | Cc1cc(-c2cnn3c(NCC4CCOCC4)cc(N[C@H](CO)C4CCOCC4)nc23)ccc1C(=O)NC1CC1 [Example C89] | > 0.5 | < 0.1 | 0.1 to 0.5 | > 0.5 | – | – | –
2 | Cc1cc(-c2cnn3c(NCC4(CO)CCOCC4)cc(NC4CCCC4)nc23)ccc1C(=O)NC1CC1 [Example C92] | > 0.5 | < 0.1 | 0.1 to 0.5 | > 0.5 | – | – | –
3 | Cc1cc(-c2cnn3c(NCC4(O)CCOCC4)cc(NC4CCOCC4)nc23)ccc1C(=O)NC1CC1 [Example C94] | > 0.5 | < 0.1 | > 0.5 | > 0.5 | – | – | –
4 | Cc1cc(-c2cnn3c(NCC4(O)CCOCC4)cc(NC4CCCC4)nc23)ccc1C(=O)NC1CC1 [Example C95] | > 0.5 | < 0.1 | 0.1 to 0.5 | > 0.5 | – | – | –
5 | Cc1cc(-c2cnn3c(NCCN4CCOCC4)cc(Oc4cccc(Cl)c4)nc23)ccc1C(=O)NC1CC1 [Example C97] | 0.1 to 0.5 | < 0.1 | ≤ 0.1 | 0.1 to 0.5 | – | – | –
6 | Cc1cc(-c2cnn3c(NCC4(O)CCOCC4)cc(Oc4cccnc4)nc23)ccc1C(=O)NC1CC1 [Example C98] | > 0.5 | < 0.1 | 0.1 to 0.5 | > 0.5 | – | – | –
7 | Cc1cc(-c2cnn3c(NCC4(CO)CCOCC4)cc(Oc4cccnc4)nc23)ccc1C(=O)NC1CC1 [Example C99] | > 0.5 | < 0.1 | 0.1 to 0.5 | > 0.5 | – | – | –
8 | O=C(NC1CC1)c1ccc(-c2cnn3c(NCCN4CCOCC4)cc(Oc4ccccc4)nc23)cc1Cl [Example C105] | ≤ 0.1 | < 0.1 | ≤ 0.1 | ≤ 0.1 | – | – | –
9 | Cc1cc(-c2cnn3c(NCC4CCOCC4)cc(N[C@H]4COC[C@H]4O)nc23)ccc1C(=O)NC1CC1 [Example C107] | > 0.5 | < 0.1 | 0.1 to 0.5 | 0.1 to 0.5 | – | – | –
10 | COCCNc1cc(N[C@H]2CCCC[C@H]2O)nc2c(-c3ccc(C(=O)NC4CC4)c(C)c3)cnn12 [Example C108] | ≤ 0.1 | < 0.1 | ≤ 0.1 | 0.1 to 0.5 | – | – | –
11 | Cc1cc(-c2cnn3c(NCC4CCOCC4)cc(NCCN4CCOCC4)nc23)ccc1C(=O)NC1CC1 [Example C114] | > 0.5 | < 0.1 | > 0.5 | > 0.5 | – | – | –
12 | Cc1cc(-c2cnn3c(NCC4CCOCC4)cc(N[C@H]4CCC[C@@H]4O)nc23)ccc1C(=O)NC1CC1 [Example C123] | 0.1 to 0.5 | < 0.1 | ≤ 0.1 | ≤ 0.1 | – | – | –
13 | Cc1cc(-c2cnn3c(NCC4CCOCC4)cc(N[C@@H]4CCCC[C@H]4O)nc23)ccc1C(=O)NC1CC1 [Example C124] | 0.1 to 0.5 | < 0.1 | 0.1 to 0.5 | 0.1 to 0.5 | – | – | –
14 | Cc1cc(-c2cnn3c(NCC4CCOCC4)cc(N[C@H]4CCCC[C@H]4CO)nc23)ccc1C(=O)NC1CC1 [Example C131] | > 0.5 | < 0.1 | 0.1 to 0.5 | 0.1 to 0.5 | – | – | –
15 | Cc1cc(-c2cnn3c(NCCCn4ccnc4)cc(N[C@H]4CCCC[C@H]4O)nc23)ccc1C(=O)NC1CC1 [Example C132] | > 0.5 | < 0.1 | > 0.5 | 0.1 to 0.5 | – | – | –
16 | CC[C@H](Nc1cc(NC[C@@H]2CCOC2)n2ncc(-c3ccc(C(=O)NC4CC4)c(C)c3)c2n1)[C@H](C)O [Example C134] | 0.1 to 0.5 | < 0.1 | 0.1 to 0.5 | 0.1 to 0.5 | – | – | –

Second part, the compound after the results:

Row | GI50 [1, 4] [µM] | IC50 (human TTK) [µM] | GI50 [2, 5] [µM] | GI50 [3, 6] [µM] | GI50 ([1]; OVCAR-3 ovarian cancer cell line) [µM] | GI50 ([2]; HCT116 colon cancer cell line) [µM] | GI50 ([3]; MDA-MB-468 breast cancer cell line) [µM] | Compound
17 | > 0.5 | < 0.1 | 0.1 to 0.5 | 0.1 to 0.5 | – | – | – | CCO[C@H]1COC[C@@H]1Nc1cc(NCC2CCOCC2)n2ncc(-c3ccc(C(=O)NC4CC4)c(C)c3)c2n1 [Example C90]
18 | > 0.5 | < 0.1 | > 0.5 | > 0.5 | – | – | – | Cc1cc(-c2cnn3c(NCCN4CCOCC4)cc(Oc4cccc(N(C)C)c4)nc23)ccc1C(=O)NC1CC1 [Example C96]
19 | 0.1 to 0.5 | < 0.1 | ≤ 0.1 | 0.1 to 0.5 | – | – | – | Cc1cc(-c2cnn3c(NCC4CCOCC4)cc(NCC4CC4)nc23)ccc1C(=O)NC1CC1 [Example C103]
20 | 0.1 to 0.5 | < 0.1 | ≤ 0.1 | 0.1 to 0.5 | – | – | – | COC[C@@H](Nc1cc(NCC2CCOCC2)n2ncc(-c3ccc(C(=O)NC4CC4)c(C)c3)c2n1)C(C)C [Example C104]
21 | 0.1 to 0.5 | < 0.1 | ≤ 0.1 | 0.1 to 0.5 | – | – | – | Cc1cc(-c2cnn3c(NCC4CCOCC4)cc(NC4CCC4)nc23)ccc1C(=O)NC1CC1 [Example C109]
22 | 0.1 to 0.5 | < 0.1 | 0.1 to 0.5 | 0.1 to 0.5 | – | – | – | Cc1cc(-c2cnn3c(NCC4CCOCC4)cc(N[C@H](C(N)=O)C(C)C)nc23)ccc1C(=O)NC1CC1 [Example C111]
23 | 0.1 to 0.5 | < 0.1 | 0.1 to 0.5 | 0.1 to 0.5 | – | – | – | Cc1cc(-c2cnn3c(NCC4CCOCC4)cc(NCC4(CO)CC4)nc23)ccc1C(=O)NC1CC1 [Example C113]
24 | > 0.5 | < 0.1 | 0.1 to 0.5 | 0.1 to 0.5 | – | – | – | Cc1cc(-c2cnn3c(NCC4CCOCC4)cc(N[C@@H](CO)C(C)C)nc23)ccc1C(=O)NC1CC1 [Example C121]
25 | 0.1 to 0.5 | < 0.1 | ≤ 0.1 | ≤ 0.1 | – | – | – | Cc1cc(-c2cnn3c(NCC4CCOCC4)cc(N[C@H]4CCCC[C@@H]4O)nc23)ccc1C(=O)NC1CC1 [Example C125]
26 | – | < 0.1 | – | – | ≤ 0.1 | ≤ 0.1 | ≤ 0.1 | Cc1cc(-c2cnn3c(NCC4CCOCC4)cc(N[C@H]4CCC[C@@H]4O)nc23)ccc1C(=O)NC1CC1 [Example C126]
27 | 0.1 to 0.5 | < 0.1 | ≤ 0.1 | 0.1 to 0.5 | – | – | – | CC[C@H](Nc1cc(NCC2CCOCC2)n2ncc(-c3ccc(C(=O)NC4CC4)c(C)c3)c2n1)C(C)(C)O [Example C127]
28 | 0.1 to 0.5 | < 0.1 | 0.1 to 0.5 | 0.1 to 0.5 | – | – | – | CC[C@H](Nc1cc(NC[C@H]2CCOC2)n2ncc(-c3ccc(C(=O)NC4CC4)c(C)c3)c2n1)[C@H](C)O [Example C133]
29 | 0.1 to 0.5 | < 0.1 | ≤ 0.1 | ≤ 0.1 | – | – | – | Cc1cc(-c2cnn3c(NCC4CCOCC4)cc(N[C@@H]4CCOC4)nc23)ccc1C(=O)NC1CC1 [Example C136]

Reference: patent publication US9573954B2, “Pyrazolopyrimidine compounds” (University Health Network, priority 2012, dated 2017)
